Read-outs that look alike come from different tables or passages of the source.
Columns and labels:
[1] = system: LOX-IMVI Melanoma cells; assay: in vitro cytotoxicity anti tumor activity; format: cell-based; conditions: Homo sapiens, read-out: IC50
[2] = system: P-glycoprotein; assay: P-glycoprotein substrate; format: cell-based, human; conditions: inferred from colony formation in GRC-1 vs KB-3-1
Description: To investigate whether masoprocol modulates multidrug resistance, a line of multidrug resistant (GRC-1) cells which were derived from parenteral drug sensitive human cervical carcinoma (KB-3-1) cells by transfection of the mdr1 genes were employed. Such transfection was by the method set forth in Choi, et al., Cell 53:519-529, 1989. These cell lines differ only with respect to the over-expression of P-glycoprotein. These tests were designed to examine whether masoprocol modulates tumor cell drug resistance by interfering with P-glycoprotein function. […] See, Regulation of initial vinblastine influx by P-glycoprotein, Shalinsky, et al., cited above.
First, cells which had been seeded at 200-300 cells/dish were incubated in media containing masoprocol or VBL. After an incubation period of 10 days at 37° C. the cells were fixed with methanol and stained with Giemsa, and the number of colonies per dish were counted and expressed as a percent of the number of colonies in control conditions. […] Parenthesis indicate standard deviations determined from replicate experiments.

`C[C@H](Cc1ccc(O)c(O)c1)[C@@H](C)Cc1ccc(O)c(O)c1` [Masoprocol, meso-1,4-bis (3,4-dihydroxyphenyl)-2,3-dimethylbutane] was tested. Which IC50 ([1]; 1 h, One Hour Pulse Treatment) did it give?
The IC50 was 38.4 µM.

What about the IC50 ([1]; Continuous Drug Exposure, observation at 70 hours) of the same compound?
The IC50 was 0.08 µM.

And the P-glycoprotein substrate [2]?
The P-glycoprotein substrate was “not a substrate for P-glycoprotein”.

From patent publication US5541232A, “Treatment of multidrug resistant diseases” (Chemex Pharmaceuticals, Inc., priority 1994, dated 1996)
